According to paper PMC13130965, “An Integrated Approach Combining Regulatory Tests in tg(cyp19a1b:GFP) Zebrafish Embryos to Assess Toxicity, Developmental Effects, and Estrogenic Activity of Chemicals: A Case Study with Bisphenol A Substitutes” (Environmental Science & Technology, 2026):
≈ marks a conversion by molar mass, not a printed value. Where “and” joins values, the source holds several entries; their conditions need not be identical. Equal entries are not always repeated. Where two headings read alike, the source gives them in different places.

Legend:
[1] = Refined Fish Embryo Acute Toxicity test (FET, OECD TG 236): mortality; assay type: in vivo, zebrafish (Danio rerio); settings: tg(cyp19a1b:GFP), zebrafish, in vivo, LC50 (96h) experimental (FET test), nominal, brackets 95% CI
[2] = tested on: tg(cyp19a1b:GFP) zebrafish embryos; test: Refined FET: developmental effects / malformations; assay type: in vivo, zebrafish (Danio rerio); settings: nominal
[3] = tested on: cyp19a1b:GFP (brain aromatase) in tg(cyp19a1b:GFP) zebrafish embryos; test: EASZY assay (OECD TG 250): GFP induction; assay type: in vivo, zebrafish (Danio rerio); settings: Danio rerio, 96 h
[4] = ref Adamovsky et al.; cited from earlier work
hERβ [5] = tested on: hERβ; design: method as in Grimaldi et al.; settings: HELN-hERβ; ref Grimaldi et al.; cited from earlier work
hERβ [6] = tested on: hERβ; design: method as in Pelch et al.; settings: HepG2-hERβ, ref Pelch et al., cited from earlier work
[7] = tested on: Zebrafish embryos ERE-GFP-Casper; design: method as in Green et al. (2016); settings: 120h exposure; ref Green et al. (2016); cited from earlier work
[8] = experimental value; ref Epi-Suite (US-EPA); cited from earlier work
Zebrafish embryos = settings: cited from earlier work; for LC50: read-out: LC50(96h)
Adult Zebrafish = settings: ref Ren et al. (2017); cited from earlier work
Fathead minnow = settings: 4-days exposure, ref Corrales et al. (2017); cited from earlier work
[9] = 72h exposure, ref Duan et al. (2008)
[10] = 120h-exposure, ref Qiu et al. (2021)
[11] = 150h exposure, ref Song et al. (2014)
[12] = zebrafish embryos, ref Ren et al. (2017)

CC(C)(c1ccc(O)cc1)c1ccc(O)cc1 [BPA, 4-[2-(4-hydroxyphenyl)propan-2-yl] phenol]
LC50 at 96 h [1]: 14.1 µg/mL (≈ 61.9 µM) | EC50 ([2]; Danio rerio, end of 96 h exposure, read-out: EC50 malformations (cumulative sublethal end points)): 6.06 µg/mL (≈ 26.5 µM) | LOEC edema [2]: 10 mg/L | LOEC growth retardation [2]: 20 mg/L | LOEC heart rate disruption [2]: 20 mg/L | LOEC hemorrhage [2]: 10 mg/L | LOEC no spontaneous movement [2]: 10 mg/L | LOEC no/Less pigmentation [2]: 10 mg/L | LOEC tail/spinal malformations [2]: 10 mg/L | LOEC deformity of yolk ([2]; at least 10% of embryos affected): 20 mg/L | minimal effective concentration ([3]; read-out: EASZY LOEC (GFP induction), nominal): 0.625 µg/mL | EC50 ([3]; read-out: EASZY relative EC50, nominal): 0.98 µg/mL (≈ 4.29 µM) | Log Kow [4]: 3.32 | EC50 (hERβ [5]): 0.384 µM | maximal efficacy (hERβ [5]): 66% | EC50 (hERβ [6]; NA = not active): 0.35 µM | maximal efficacy (hERβ [6]): 97% | EC50 [7]: 1.226 µg/mL (≈ 5.37 µM) | LOEC [7]: 1000 µg/L and 4380.32 nM | Water solubility [8]: 300 µg/mL | mortality (Zebrafish embryos; 100 µM (23 mg/L) at 72h, ref Björnsdotter et al. (2017)): 100% | mortality (Zebrafish embryos; 20 mg/L, 48h, ref Makarova et al. (2016)): 65% | LC10(96h) (Zebrafish embryos; 4-days exposure, ref Blanc et al. (2019)): 6.62 µg/mL (≈ 29 µM) | LC50(48h) (Zebrafish embryos; 4-days exposure, ref Tišler et al. (2016)): 15.9 (13.8-18.3) mg/L | mortality (Zebrafish embryos; 5-15 µM, ref McCormick et al. (2010)): 4-8% | LC50(24h) (Zebrafish embryos; [9]): 16.75 µg/mL (≈ 73.4 µM) | NOEC (Zebrafish embryos; [9]): 2 mg/L | LOEC (body length, GnRH3 neurons, reproductive neuroendocrine-related genes and hormones) (Zebrafish embryos; [10]): 100 µg/L | NOEC (body length, GnRH3 neurons, reproductive neuroendocrine-related genes and hormones) (Zebrafish embryos; [10]): 1 µg/L | LC50(144h) (Zebrafish embryos; [11]): 7.5 µg/mL (≈ 32.9 µM) | LOAELs (Zebrafish embryos; [11]): 5 mg/L | NOEC (developmental toxicity) (Zebrafish embryos; Wildtype (AB/TL), 1-6 dpf static + 6-9 dpf semistatic, ref Catron et al. (2018; 2019)): 11.5 µM | LC50(96h) (Zebrafish embryos; Zebrafish, 4-days exposure, ref Corrales et al. (2017)): 12.8 µg/mL (≈ 56.1 µM) | scoliosis (% of embryos) (Zebrafish embryos; at 8.041 mg/L, 2-5 dpf exposure, ref Martínez et al. (2019)): 16% | mortality (Zebrafish embryos; at 25 mg/L, ref Duan et al. (2008)): 100% | LC50 (Zebrafish embryos; 4-days exposure, ref Chow et al. (2013)): 35 µM | LC50 (Zebrafish embryos; Wildtype AB, 96h-exposure, ref Arrokhman et al. (2023)): 57.1 µM | delayed hatching EC50(96h) (Zebrafish embryos; ref Chow et al. (2013)): 5.25 µg/mL | LC50(5dpf) (Zebrafish embryos; ref McCormick et al. (2011)): 5 (±0.89) mg/L | LC50(28dpf) (Zebrafish embryos; ref McCormick et al. (2011)): 1.8 µg/mL (≈ 7.88 µM) | LOAEL(5dpf) (Zebrafish embryos; ref McCormick et al. (2011)): 1 mg/L | Edema EC50(48h) (Zebrafish embryos; ref Tišler et al. (2016)): 13.9 (8.5-22.8) mg/L | Hatching inhibition EC50(72h) (Zebrafish embryos; ref Tišler et al. (2016)): 4.0 µg/mL | Missing blood flow EC50(48h) (Zebrafish embryos; ref Tišler et al. (2016)): 12.3 µg/mL | Pigmentation EC50(48h) (Zebrafish embryos; ref Tišler et al. (2016)): 3.6 (2.5-5.3) mg/L | LC50 (96h) literature (Zebrafish embryos; zebrafish embryos, 95% CI, ref Chow et al.): 8.041 [7.846;8.24] mg/L | LC50 (96h) literature (Zebrafish embryos; zebrafish embryos, 95% CI, ref Mu et al.): 10.4 [9.44–11.58] mg/L | LC50 (96h) literature (Zebrafish embryos; zebrafish embryos, parentheses SEM, ref Moreman et al.): 12 (0.22) mg/L | LC50 (96h) literature (Zebrafish embryos; zebrafish embryos, ref Arrokhman et al.): 13 mg/L (≈ 56.9 µM) | LC50 (96h) literature (Zebrafish embryos; zebrafish embryos, ref Blanc et al.): 9.82 mg/L (≈ 43 µM) | LC50 (96h) literature (Zebrafish embryos; zebrafish embryos, ref Gao et al.): 11.69 mg/L (≈ 51.2 µM) | Body length LOEC (Zebrafish embryos; [12]): 4 mg/L | Body length NOEC (Zebrafish embryos; [12]): 2 mg/L | LC50 (96h) literature (Zebrafish embryos; zebrafish embryos, ref Ren et al.): 5.82 mg/L (≈ 25.5 µM) | LC50(24h) (Adult Zebrafish): 9.51 µg/mL (≈ 41.7 µM) | LC50(48h) (Adult Zebrafish): 9.31 µg/mL (≈ 40.8 µM) | LC50(72h) (Adult Zebrafish): 8.09 µg/mL (≈ 35.4 µM) | LC50(96h) (Adult Zebrafish): 8.09 µg/mL (≈ 35.4 µM) | LC50(96h) (Fathead minnow): 4.2 µg/mL (≈ 18.4 µM)
